Test results reported in publication PMC9860125 (The Journal of Biological Chemistry, 2022).

Experiments:
EmrE [1] = molecular target: T1, EmrE (Escherichia coli, UniProt P23895); assay: SSME transport with purified EmrE in proteoliposomes, empty liposome control; type: biochemical; design: WT-EmrE in POPC proteoliposomes
EmrE [2] = molecular target: T1, EmrE; assay: ITC (pH […] ºC); NMR pH titration; ZZ-exchange NMR; type: binding; design: WT EmrE, antiparallel homodimer, in DMPC/DHPC isotropic bicelles
Glu14 = Glu14 (UniProt position 14, GAILAEVIGTT); assay: NMR; settings: 45 °C; not stated (no added salt beyond the buffer components); 20 mM sodium acetate, 50 mM Mes, 50 mM Mops, 100 mM bicine, 2 mM TCEP, 0.01% sodium azide; Saturated with 2H-dTPP2+ (at least 4x the EmrE monomer concentration). Alternating access is in slow exchange, and the substrate is associated asymmetrically with subunit A.

T1 sequence (P23895 whole entry): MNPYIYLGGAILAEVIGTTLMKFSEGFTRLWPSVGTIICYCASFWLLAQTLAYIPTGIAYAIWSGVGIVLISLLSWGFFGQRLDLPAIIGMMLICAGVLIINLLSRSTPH

Compound	SSME transport with purified EmrE in proteoliposomes, empty liposome control (EmrE [1])	Kd (EmrE [2]) [µM]	other results
CC[n+]1c(-c2ccccc2)c2cc(N)ccc2c2ccc(N)cc21 [Eth+, ethidium]	observed signal under these conditions is transport dependent on the protein as empty controls show minimal signal		
C[n+]1ccc(-c2cc[n+](C)cc2)cc1 [MV2+, methyl viologen]	Addition of the substrate gradient resulted in increased net flux compared with drug-free conditions, consistent with net symport		
c1ccc([P+](c2ccccc2)(c2ccccc2)c2ccc([P+](c3ccccc3)(c3ccccc3)c3ccccc3)cc2)cc1 [dTPP2+, 1,4-phenylenebis(triphenylphosphonium) bromide]		8.1 ± 0.4	
c1ccc(C(c2ccccc2)(c2ccccc2)c2ccc([P+](c3ccccc3)(c3ccccc3)c3ccccc3)cc2)cc1 [dTPP+, triphenyl[4-(triphenylmethyl)phenyl]phosphonium iodide]		9.3 ± 0.3	
EmrE (small multidrug resistance transporter) (Escherichia coli)			pKa (Glu14): 6.2 ± 0.1
